Laboratory results as given in US20240294551A1 (AMGEN INC., priority 2022, published 2024).
Where two headings read alike, the source gives them in different places.

Experiments:
[1] = tested on: Phosphorylation of ERK1/2 in AsPC-1 cells; test: Phospho-ERK1/2 MSD Assay; format: cell-based, human
Method in brief: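 Read-out: MSD electrochemiluminescent detection of phosphorylated ERK1/2 in whole-cell lysates, fitted to a 4-parameter logistic curve for IC50. Prior to lysis, AsPC-1 cells (25,000 per well) received a 2 h compound dose-response at 37 °C.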

[2] = tested on: MIA PaCa-2 cells; test: MIA PaCa-2 CTG Assay (CellTiter-Glo cell viability); format: cell-based, human; details: Homo sapiens, second value of the cell
Procedure: MIA PaCa-2 CTG Assay Protocol
MIA PaCa-2 (human pancreatic carcinoma; ATCC CRL-1420) cells were cultured in RPMI 1640 medium containing 10% fetal bovine serum and 1× penicillin/streptomycin/L-glutamine. Cells were seeded in 384-well plates at a density of 1.67E+04 cells/mL and incubated at 37° C., 5% CO2, overnight. Serially-diluted compound or DMSO was added to the cells, and plates were incubated at 37° C., 5% CO2 for 72 h. Cell viability was measured using a CellTiter-Glo® Luminescent Cell Viability Assay kit (Promega) according to the manufacturer's protocol. The luminescence signal of treated samples was normalized to DMSO control, and data were analyzed using a 4-parameter logistic model to calculate IC50 values.

[3] = tested on: AsPC-1 cells; test: AsPC-1 CTG Assay (CellTiter-Glo cell viability); format: cell-based, human; details: AsPC-1, 72 h, first value of the cell, read-out: G12D/C/V Cell Proliferation CTG (72 h) AsPC-1
Method in brief: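 Human pancreatic AsPC-1 or colon SW620 cells in RPMI 1640 with 10% FBS, seeded overnight, then exposed to serially diluted compound for 72 h at 37 °C. CellTiter-Glo luminescence normalized to DMSO control; IC50 from a 4-parameter logistic model.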

[4] = target: GDP-bound KRAS protein (aa 1-169), containing both G12D and C118A amino acid substitutions (Homo sapiens (Human), UniProt P01116, C118A/G12D); test: KRAS G12D Coupled Nucleotide Exchange Assay; format: biochemical; details: read-out: KRAS G12D Coupled Exchange IC50
Sequence of GDP-bound KRAS protein (aa 1-169), containing both G12D and C118A amino acid substitutions (P01116 other isoform, or with tags, fused parts or gaps G12D/C118A): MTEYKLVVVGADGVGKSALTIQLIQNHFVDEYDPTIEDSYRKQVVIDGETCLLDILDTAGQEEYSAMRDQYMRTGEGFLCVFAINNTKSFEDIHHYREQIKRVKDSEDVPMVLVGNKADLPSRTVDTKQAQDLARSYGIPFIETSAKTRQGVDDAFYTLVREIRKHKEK

[5] = target: His-tagged KRAS G12D protein (Homo sapiens (Human), UniProt P01116, G12D); test: KRAS G12D TR-FRET Assay; format: binding; details: read-out: KRAS G12D Binding IC50
Sequence of His-tagged KRAS G12D protein (P01116 other isoform, or with tags, fused parts or gaps G12D): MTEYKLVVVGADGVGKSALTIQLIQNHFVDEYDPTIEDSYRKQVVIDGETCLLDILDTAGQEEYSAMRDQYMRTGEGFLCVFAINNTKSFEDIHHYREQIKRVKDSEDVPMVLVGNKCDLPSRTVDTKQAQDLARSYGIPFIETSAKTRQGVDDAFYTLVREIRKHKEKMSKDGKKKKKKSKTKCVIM
Method in brief: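 His-tagged KRAS G12D (diluted to 20 nM in pH 7.4 HEPES buffer with 10 mM MgCl2 and 10 μM GDP) was preincubated with titrated compound for 30 min at room temperature. Biotinylated KRPep-2d peptide (diluted to 20 nM) was then added for 1 h, and displacement was monitored by TR-FRET.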

[6] = Homo sapiens, ASPC1, 2 h, read-out: 2 h p-ERK (AsPC-1 cells), IC50
[7] = Mia PaCa-2, 72 h, read-out: G12D/C/V Cell Proliferation CTG (72 h) Mia PaCa-2
[8] = 2 h, read-out: 2 h p-ERK (AsPC-1 cells), IC50

| IC50 [1, 6] | IC50 [2, 7] | IC50 ([3]; Homo sapiens, ASPC1, 72 h) | IC50 [4] | IC50 [5] | IC50 [1, 8] | IC50 [3] | IC50 ([1]; Homo sapiens, ASPC1, 2 h, read-out: 2 h p-ERK (AsPC-1 cells)) | IC50 ([2]; MIA PaCa-2 cells (G12C), 72 h, read-out: G12D/C/V Cell Proliferation CTG (72 h) MIA PaCa-2) | SMILES | IC50 ([3]; Homo sapiens, ASPC1) |
| --- | --- | --- | --- | --- | --- | --- | --- | --- | --- | --- |
| 7.9 nM | 90 nM | 104 nM | 2 nM | 5 nM |  |  |  |  | C[C@@]12CCCCN(C1)c1nc(OC[C@@]34CCCN3C[C@H](F)C4)nc3c(F)c(ncc13)-c1c(c(Cl)cc3[nH]ncc13)CCC[C@H](F)C(=O)N2 (mixture of isomers) [Example 281, (23RS,26R)-18-chloro-23,32-difluoro-4-(((2R,7aS)-2-fluorotetrahydro-1H-pyrrolo[1,2-a]pyrrol-7a(5H)-yl)methoxy)-26-methyl-1,3,5,9,14,15,25-heptaazahexacyclo[24.4.1.1~6,10~.0~2,7~.0~11,19~.0~12,16~]dotriaconta-2,4,6,8,10(32),11,13,16,18-nonaen-24-one] |  |
| 12 nM | 62 nM | 134 nM | 2 nM | 4 nM |  |  |  |  | CO[C@@H]1C[C@@H](COc2nc3c4cnc(c(F)c4n2)-c2c(c(Cl)cc4[nH]ncc24)CCOC(=O)OC2CC4(CCCN3C4)C2)N(C)C1 (mixture of isomers) [Example 307] |  |
| 8 nM | 100 nM | 250 nM | 3 nM | 5 nM |  |  |  |  | O=C1OC/C=C\c2c(Cl)cc3[nH]ncc3c2-c2ncc3c(nc(OC[C@@]45CCCN4C[C@H](F)C5)nc3c2F)N2CCC[C@H](C2)O1 (single isomer, unassigned) [Example 122] |  |
|  | 420 nM | 587 nM | 3 nM | 4 nM | 71.8 nM |  |  |  | Cc1cc2[nH]ncc2c2c1CCCC(F)C(=O)N[C@@H]1CCCCN(C1)c1nc(OC[C@@]34CCCN3C[C@H](F)C4)nc3c(F)c-2ncc13 (single isomer, unassigned) [Example 160] |  |
| 77.8 nM | 130 nM | 412 nM | 5 nM | 7 nM |  |  |  |  | Cc1cc2[nH]ncc2c2c1[C@H]1C[C@H]1CCOC[C@H]1CN(CCO1)c1nc(OC[C@@]34CCCN3C[C@H](F)C4)nc3c(F)c-2ncc13 (single isomer, unassigned) [Example 226] |  |
| 40.2 nM | 28 nM | 270 nM | 5 nM | 6 nM |  |  |  |  | Fc1c2ncc3c(nc(OC[C@@]45CCCN4C[C@H](F)C5)nc13)N1CCO[C@]3(C1)C[C@@H](C3)OCCCCc1c(Cl)cc3[nH]ncc3c1-2 (single isomer, unassigned) [Example 261] |  |
| 109 nM | 480 nM | 980 nM |  |  |  |  |  |  | Fc1c2ncc3c(nc(OC[C@@]45CCCN4C[C@H](F)C5)nc13)N1CCC[C@@H](CSCCCCc3c(Cl)cc4[nH]ncc4c3-2)C1 [Example 143] |  |
| 21.8 nM | 67 nM | 375 nM |  |  |  |  |  |  | Cc1cc2[nH]ncc2c2c1CCCOC(=O)O[C@@H]1COCCN(C1)c1nc(OC[C@@]34CCCN3C[C@H](F)C4)nc3c(F)c-2ccc13 [Example 192, (26S)-32-fluoro-4-(((2R,7aS)-2-fluorotetrahydro-1H-pyrrolo[1,2-a]pyrrol-7a(5H)-yl)methoxy)-18-methyl-23,25,28-trioxa-1,3,5,14,15-pentaazahexacyclo[24.4.1.1~6,10~.0~2,7~.0~11,19~.0~12,16~]dotriaconta-2,4,6,8,10(32),11,13,16,18-nonaen-24-one] |  |
| 262 nM | 320 nM |  | 4 nM | 10 nM |  |  |  |  | C[C@@]12COCCN(C1)c1nc(OC[C@@]34CCCN3C[C@H](F)C4)nc3c(F)c(ncc13)-c1cccc(Cl)c1CCCOC(=O)O2 [Example 200, (23S)-15-chloro-29-fluoro-4-(((2R,7aS)-2-fluorotetrahydro-1H-pyrrolo[1,2-a]pyrrol-7a(5H)-yl)methoxy)-23-methyl-20,22,25-trioxa-1,3,5,9-tetraazapentacyclo[21.4.1.1~6,10~.0~2,7~.0~11,16~]nonacosa-2,4,6,8,10(29),11,13,15-octaen-21-one] |  |
|  | 82 nM |  |  |  | 10.1 nM | 112 nM |  |  | Fc1c2ncc3c(nc(OC[C@@]45CCCN4C[C@H](F)C5)nc13)N1CCC[C@H](C1)c1coc(n1)CCCc1c(Cl)cc3[nH]ncc3c1-2 [Example 246, (18R)-9-chloro-31-fluoro-25-(((2R,7aS)-2-fluorotetrahydro-1H-pyrrolo[1,2-a]pyrrol-7a(5H)-yl)methoxy)-15-oxa-5,6,22,24,26,30,33-heptaazaheptacyclo[25.3.1.1~14,17~.1~18,22~.0~2,10~.0~3,7~.0~23,28~]tritriaconta-1(31),2,4,7,9,14(33),16,23,25,27,29-undecaene] |  |
| 103 nM | 380 nM |  | 4 nM | 15 nM |  |  |  |  | C[C@@]12COCCN(C1)c1nc(OC[C@@]34CCCN3C[C@H](F)C4)nc3c(F)c(ncc13)-c1cccc3ccc(F)c(c13)CCOC(=O)O2 [Example 304, (16S)-23,32-difluoro-8-(((2R,7aS)-2-fluorotetrahydro-1H-pyrrolo[1,2-a]pyrrol-7a(5H)-yl)methoxy)-16-methyl-14,17,19-trioxa-3,7,9,11-tetraazahexacyclo[20.7.1.1~2,6~.1~11,16~.0~5,10~.0~26,30~]dotriaconta-1(30),2(32),3,5,7,9,22,24,26,28-decaen-18-one] |  |
|  |  |  |  |  |  |  | 10.4 nM | 12 nM | Fc1c2ncc3c(nc(OC[C@@]45CCCN4C[C@H](F)C5)nc13)N1CCOC[C@H](C1)c1noc(n1)CCCc1c(Cl)cc3[nH]ncc3c1-2 [Example 381] |  |

| SMILES | IC50 [1, 6] | IC50 [2, 7] | IC50 ([3]; Homo sapiens, ASPC1, 72 h) | IC50 [4] | IC50 [5] | IC50 [1, 8] | IC50 [3] | IC50 ([1]; Homo sapiens, ASPC1, 2 h, read-out: 2 h p-ERK (AsPC-1 cells)) | IC50 ([2]; MIA PaCa-2 cells (G12C), 72 h, read-out: G12D/C/V Cell Proliferation CTG (72 h) MIA PaCa-2) | IC50 ([3]; Homo sapiens, ASPC1) |
| --- | --- | --- | --- | --- | --- | --- | --- | --- | --- | --- |
| O=C1CC/C=C\c2c(Cl)cc3[nH]ncc3c2-c2ncc3c(nc(OC[C@@]45CCCN4C[C@H](F)C5)nc3c2F)N2CCCC(C2)O1 (stereo in doubt) [Example 35, (11Z,17S)-9-Chloro-30-fluoro-24-(((2R,7aS)-2-fluorotetrahydro-1H-pyrrolo[1,2-a]pyrrol-7a(5H)-yl)methoxy)-16-oxa-5,6,21,23,25,29-hexaazahexacyclo[24.3.1.1˜17,21˜.0˜2,10˜.0˜3,7˜.0˜22,27˜]hentriaconta-1(30),2,4,7,9,11,22,24,26,28-decaen-15-one bis(2,2,2-trifluoroacetate)] | 19 nM | 90 nM |  | 1 nM | 1 nM |  |  |  |  | 277 nM |
| C[C@@]12CCCN(C1)c1nc(OC[C@@]34CCCN3C[C@H](F)C4)nc3c(F)c(ncc13)-c1cc(O)cc3cccc(c13)CCCC(=O)N2 [Example 3, (15R)-31-Fluoro-8-(((2R,7aS)-2-fluorotetrahydro-1H-pyrrolo[1,2-a]pyrrol-7a(5H)-yl)methoxy)-27-hydroxy-15-methyl-3,7,9,11,16-pentaazahexacyclo[19.7.1.1˜2,6˜.1˜11,15˜.0˜5,10˜.0˜25,29˜]hentriaconta-1(28),2(31),3,5,7,9,21,23,25(29),26-decaen-17-one bis(2,2,2-trifluoroacetate)] | 23 nM | 75 nM | 285 nM | 0.1 nM | 1 nM |  |  |  |  |  |
| CN1C[C@H](F)C[C@H]1COc1nc2c3cnc(c(F)c3n1)-c1cc(O)cc3ccc(F)c(c13)CCCC(=O)N[C@]1(C)CCCN2C1 [Example 5, (15R)-22,31-Difluoro-8-(((2S,4R)-4-fluoro-1-methyl-2-pyrrolidinyl)methoxy)-27-hydroxy-15-methyl-3,7,9,11,16-pentaazahexacyclo[19.7.1.1˜2,6˜.1˜11,15˜.0˜5,10˜.0˜25,29˜]hentriaconta-1(28),2(31),3,5,7,9,21,23,25(29),26-decaen-17-one bis(2,2,2-trifluoroacetate)] | 23 nM | 62 nM | 471 nM | 1 nM | 1 nM |  |  |  |  |  |
